The text below walks through data of patent publication US5066658A, “Substituted hydroxyureas” (Ortho Pharmaceutical Corporation, priority 1990, dated 1991).

Each structure is given as a SMILES string.

One test deals with T1, 5-lipoxygenase (Rattus norvegicus, UniProt P12527).
T1 construct: The cell-free homogenate was prepared by sonication of the cells followed by centrifugation at 40,000 xg; endogenous in cells; host or cells: RBL-1 (rat basophilic leukemia) cells, 40,000 xg supernatant of the sonicate
T1 sequence (P12527 1-673): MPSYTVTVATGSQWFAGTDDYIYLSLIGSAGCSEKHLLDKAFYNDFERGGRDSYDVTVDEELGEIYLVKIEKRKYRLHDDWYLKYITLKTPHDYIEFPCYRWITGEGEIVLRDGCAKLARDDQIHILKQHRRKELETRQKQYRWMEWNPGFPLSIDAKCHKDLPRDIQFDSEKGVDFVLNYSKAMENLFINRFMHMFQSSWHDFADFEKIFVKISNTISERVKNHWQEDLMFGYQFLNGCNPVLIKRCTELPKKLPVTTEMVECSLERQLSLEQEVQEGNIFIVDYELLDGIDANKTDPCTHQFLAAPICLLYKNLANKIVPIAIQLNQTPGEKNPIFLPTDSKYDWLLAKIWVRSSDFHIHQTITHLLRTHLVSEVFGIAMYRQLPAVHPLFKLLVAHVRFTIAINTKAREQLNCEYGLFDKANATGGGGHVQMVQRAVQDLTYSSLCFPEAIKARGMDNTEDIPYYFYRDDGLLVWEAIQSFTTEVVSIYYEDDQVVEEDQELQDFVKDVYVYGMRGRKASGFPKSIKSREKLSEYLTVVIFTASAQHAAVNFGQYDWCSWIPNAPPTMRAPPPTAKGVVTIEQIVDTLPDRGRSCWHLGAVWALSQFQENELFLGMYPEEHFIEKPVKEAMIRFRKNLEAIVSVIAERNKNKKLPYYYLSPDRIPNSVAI
Put plainly: Inhibition of 5-lipoxygenase in cell-free homogenate of rat basophilic leukemia (RBL-1) cells. The class given is biochemical. As to conditions: 3 μM; RBL-1 cell-free homogenate; read-out: Inhibition of 5-Lipoxygenase, % Inh. @ 3 μM. The method, then:
The inhibition of 5-lipoxygenase was tested in a cell-free homogenate by the procedure of B. Jakschik et al., Biochem.Biophys.Res.Comm. 95, 103 (1980). Basically, rat basophilic leukemia cells (RBL-1 cells) were maintained in culture in a suitable medium, and were collected by centrifugation prior to assay. The cell-free homogenate was prepared by sonication of the cells followed by centrifugation at 40,000 xg. The CaCl2 dependent production of lipoxygenase products from ^14 C-arachidonic acid in the 40,000 xg supernatant was monitored in the presence of buffer (or other vehicle) or drug. Products were isolated by acidification and extraction, followed by thin layer chromatography. Radioactive areas corresponding to the authentic lipoxygenase products were quantitated by liquid scintillation counting. Data was reported as the IC50, the concentration causing 50% inhibition of the generation of lipoxygenase products. The results are shown it Table I as the percent inhibition at 3 μM or the amount of compound necessary to cause 50% inhibition.

The subject of test [1] is Arachidonate-Induced Bronchospasm (lipoxygenase). Put plainly: Pulmonary Mechanics Assay: arachidonate-induced bronchospasm with indomethacin (SRS-A response, indicative of lipoxygenase inhibition). It is filed as in vivo, male Hartley guinea pigs. The following applies: Cavia porcellus, guinea pig; for inhibition in vivo at 15 mg/kg: IV dosing, read-out: Inhibition of Arachidonate-Induced Bronchospasm (IV Dosing), % Inh. with Indomethacin; for inhibition in vivo at 50 mg/kg: ID dosing, read-out: Inhibition of Arachidonate-Induced Bronchospasm (ID Dosing), % Inh. with Indomethacin. The method, then: (§1) The bronchodilating activity of the compounds was tested in a pulmonary mechanics assay. Basically, male Hartley guinea pigs (about 400-500 g) were anesthetized with urethane (2 g/kg, i.p.) and placed in a whole body Plethysmograph. Cannulations of a jugular vein and carotid artery were performed for compound administration and monitoring blood pressure, respectively. The trachea was cannulated for respiration at a constate volume via a miniature starling pump. A Validyne differential pressure transducer (±20 cm H2 O) sensed transpleural pressure via a 15 gauge needle inserted into the pleural cavity and a sidearm from the tracheal cannula. Tidal volume was sensed by another Validyne differential pressure transducer (±2 cm H2 O) from pressure changes inside the plethysmograph. An on-line Buxco pulmonary mechanics computer calculated air flow, dynamic lung compliance and lung resistance. The values were recorded on a print-out.
(§2) The guinea pigs were pretreated with succinyl choline (1.2 mg/kg, i.v.) to arrest spontaneous respiration. A control challenge of arachidonic acid (0.5-1.0 mg/kg, i.v.) was administered, and the animals were then dosed with the test compound by various routes. At least 10 minutes were allowed to expire between arachidonic acid challenges. A second challenge was given and compared to the control response. This comparison was indicative of cyclooxygenase inhibition. Indomethacin (10 mg/kg, i.v.) was administered immediately after the second challenge. A third challenge of a higher dose of arachidonic acid (5-10 mg/kg, i.v.) was given. This response was induced by SRS-A and compared to the responses elicited by a separate control group of animals. Activity was indicative of lipoxygenase inhibition. Propranolol (0.005 mg/kg. i.v.) may be given prior to the third challenge to enhance the response to SRS-A.
(§3) Bronchoconstriction induced by arachidonic acid with or without indomethacin was expressed as maximum percent change in dynamic lung compliance (Cdyn) and maximum percent increase in lung resistance (RL). Each guinea pig served as its own control for cyclooxygenase evaluation. The results are shown in Table I and are expressed as the percent inhibition of control.

The test system of test [2] is Arachidonate-Induced Bronchospasm (cyclooxygenase). Put plainly: Pulmonary Mechanics Assay: arachidonate-induced bronchospasm without indomethacin (indicative of cyclooxygenase inhibition). It is filed as in vivo, male Hartley guinea pigs. The following applies: Cavia porcellus, guinea pig; for inhibition in vivo at 15 mg/kg: IV dosing, read-out: Inhibition of Arachidonate-Induced Bronchospasm (IV Dosing), % Inh. without Indomethacin; for inhibition in vivo at 50 mg/kg: ID dosing, read-out: Inhibition of Arachidonate-Induced Bronchospasm (ID Dosing), % Inh. without Indomethacin. Here is the method: as §1, §2, §3

For orientation: inhibition means how much of the control response was suppressed. `COc1cc2c(cc1OC)CC(NC(=O)N(C)O)CC2` (centres unmarked) [Example 61, N-(6,7-Dimethoxy-1,2,3,4-tetrahydro-2-naphthyl)-N'-hydroxy-N'-methylurea]: the inhibition at 3 µM at 5-lipoxygenase was 73%. Besides, the inhibition in vivo at 15 mg/kg in test [1] and in test [2] was below 20% each time.

For the compound `CN(O)C(=O)NCCCCCCCOc1ccc(-c2ccccc2)cc1` [Example 38], the inhibition at 3 µM at 5-lipoxygenase came to 56%. Also, the results for the inhibition in vivo at 50 mg/kg in test [1] and in test [2] were below 20% and -9%, respectively.

With `CN(O)C(=O)NCc1ccc(-c2ccccc2)cc1` [Example 30, N-([1,1'-Biphenyl]-4-ylmethyl)N'hydroxy-N'methylurea], the inhibition at 3 µM at 5-lipoxygenase amounted to 74%. Besides, the inhibition in vivo at 50 mg/kg in test [1] and in test [2] was below 20% each time.

For the compound `C=CCOc1ccc(CCNC(=O)N(C)O)cc1OC` [Example 55], the inhibition at 3 µM on 5-lipoxygenase came to 42%. In addition, the inhibition in vivo at 50 mg/kg was 56% in test [1] and -68% in test [2]. Besides, the inhibition in vivo at 15 mg/kg in test [1] is 83%; in test [2], 56%.

With `COc1ccc(CCCNC(=O)N(C)O)cc1OC` [Example 65, N-[3-(3,4-Dimethoxyphenyl)propyl]-N'-hydroxy-N'-methylurea], the inhibition at 3 µM on 5-lipoxygenase is 19%. In addition, in test [1], the inhibition in vivo at 50 mg/kg is 59% and the inhibition in vivo at 15 mg/kg is 89%. Moreover, in test [2], the inhibition in vivo at 50 mg/kg turned out to be 52% and the inhibition in vivo at 15 mg/kg was found to be 86%.

Turning to `COc1cc(CCNC(=O)N(C)O)ccc1OCc1ccccc1` [Example 68, N-[2-(4-Benzyloxy-3-methoxyphenyl)ethyl]-N'-hydroxy-N'-methylurea], the inhibition at 3 µM at 5-lipoxygenase amounted to 69%. For the same compound, the inhibition in vivo at 50 mg/kg in test [1] was 28%; in test [2], below 20%.

`CN(O)C(=O)NCCc1ccc(Cl)c(Cl)c1` [Example 50, N-[2-(3,4-Dichlorophenyl)ethyl]-N'-hydroxy-N'-methylurea]: the inhibition at 3 µM on 5-lipoxygenase is 59%. The inhibition in vivo at 50 mg/kg in test [1] and in test [2] was below 20% each time.

In the case of `COc1cccc(CCNC(=O)N(C)O)c1OC` [Example 44, N-[2-(2,3-Dimethoxyphenyl)ethyl]-N'-hydroxy-N'-methylurea], on 5-lipoxygenase, the inhibition at 3 µM came out at 33%. For the same compound, the inhibition in vivo at 50 mg/kg was 58% in test [1] and below 20% in test [2].

`CN(O)C(=O)NCCCOc1ccc(-c2ccccc2)cc1` [Example 34, N-[3-([l,l'biphenyl]-4-yloxy)propyl]N'hydroxy N'methylurea]: the inhibition at 3 µM at 5-lipoxygenase amounted to 93%. In addition, the figures for the inhibition in vivo at 50 mg/kg in test [1] and in test [2] were 34% and -74%, respectively.

On to `COc1ccc([C@@H]2C[C@H]2NC(=O)N(C)O)cc1OC` (relative stereo) [Example 66, N-[Trans-2-(3,4-dimethoxyphenyl)cyclopropyl]-N'-hydroxy-N'-methylurea], for which, on 5-lipoxygenase, the inhibition at 3 µM is 28%. In addition, in test [1], the inhibition in vivo at 50 mg/kg was found to be 45% and the inhibition in vivo at 15 mg/kg stood at 90%. In test [2], the inhibition in vivo at 50 mg/kg was 43% and the inhibition in vivo at 15 mg/kg is 61%.

Regarding `COc1ccc(CCNC(=O)N(O)C(C)C)cc1OC` [Example 41, N-[2-(3,4-Dimethoxyphenyl)ethyl]-N'-hydroxy-N'-(1-methylethyl)urea], the inhibition at 3 µM at 5-lipoxygenase was determined as 95%. Further, in test [1], the inhibition in vivo at 50 mg/kg came to 30% and the inhibition in vivo at 15 mg/kg was found to be 70%. In test [2], the inhibition in vivo at 50 mg/kg is below 20% and the inhibition in vivo at 15 mg/kg came to 42%.

As for `COc1cc(CCNC(=O)N(C)O)ccc1O` [Example 70, N-[2-(4-Hydroxy-3-methoxyphenyl)ethyl]-N'-hydroxy-N'-methylurea], the inhibition at 3 µM at 5-lipoxygenase amounted to 39%. Besides, the inhibition in vivo at 50 mg/kg in test [1] and in test [2] was below 20% throughout.

For the compound `COc1ccc(CCNC(=O)N(C)O)c(OC)c1` [Example 49, N-[2-(2,4-Dimethoxyphenyl)ethyl]-N'-hydroxy-N'-methylurea], on 5-lipoxygenase, the inhibition at 3 µM came out at 99%. For the same compound, the results for the inhibition in vivo at 15 mg/kg in test [1] and in test [2] were 67% and 39%, respectively.

Turning to `CN(O)C(=O)NCCCCCCOc1ccc(-c2ccccc2)cc1` [Example 37, N-[6-([1,1'-Biphenyl]-4-yloxy)hexyl]N'hydroxy-N'-methylurea], the inhibition at 3 µM at 5-lipoxygenase is 65%. For the same compound, the inhibition in vivo at 50 mg/kg was -11% in test [1] and -33% in test [2].

With `CN(O)C(=O)NCCCc1ccc(-c2ccccc2)cc1` [Example 32, N-[3-([1,1'-Biphenyl]-4-yl)propyl]-N'-hydroxy-N'-methylurea], the inhibition at 3 µM on 5-lipoxygenase is 71%. In addition, the inhibition in vivo at 50 mg/kg in test [1] and in test [2] was below 20% in each case.

On to `COc1ccc(C2C3C=CC(C3)C2NC(=O)N(C)O)cc1OC` (stereo not drawn) [Example 58, N-[trans-3-(3,4-Dimethoxyphenyl)bicyclo[2.2.1]-5-hepten-2-yl]-N'-hydroxy-N'-methylurea], for which, on 5-lipoxygenase, the inhibition at 3 µM is 37%. Further, the inhibition in vivo at 50 mg/kg worked out at 68% in test [1] and 35% in test [2].

Regarding `CN(O)C(=O)NCCCCCOc1ccc(-c2ccccc2)cc1` [Example 36, N-[5-([l,l'Biphenyl]-4-yloxy)pentyl]N'-hydroxy-N'-methylurea], the inhibition at 3 µM on 5-lipoxygenase stood at 67%. The inhibition in vivo at 50 mg/kg in test [1] is 31%; in test [2], below 20%.

With `COc1ccc(CCNC(=O)N(C)O)cc1O` [Example 71, N-[2-(3-Hydroxy-4-methoxyphenyl)ethyl]-N'-hydroxy-N'-methylurea], the inhibition at 3 µM at 5-lipoxygenase is 5%. Also, the results for the inhibition in vivo at 50 mg/kg in test [1] and in test [2] were below 20% and 77%, respectively.
